We go through eleven compounds from patent US11964990B2, “1,3,4,7-tetrahydro-2H-pyrrolo[3′,2′:5,6]pyrido[2,3-b][1,4]oxazepine bcl-2 inhibitors” (AbbVie Inc., priority 2022, dated 2024).

Assay [1] relates to RS4;11 cells. Description: Cell viability assay (CellTiter-Glo) in RS4;11 cell line. The format is cell-based. As to conditions: 24 hours, 10% Human Serum, 50% decrease in cell viability. The text has this:
(§1) The acute lymphoblastic leukemia (ALL) human cell line RS4;11 (ATCC, Manassas VA) was used as the primary human cell line to assess the cellular activity of compound of the present Examples in vitro and their efficacy in vivo. BH3 profiling, a mitochondrial assay that classifies blocks in the intrinsic apoptotic pathway, has shown that RS4;11 cells were highly dependent on Bcl-2 protein for survival and were sensitive to a Bcl-2 inhibitor (Blood. 2008; 111(4):2300-2309). […] The acute lymphoblastic leukemia cell line Molt-4, which is derived from immature T-lymphoid cells (T-ALL), was used as a counter screen assay.
(§2) Frozen RS4;11 or Molt-4 cells (ATCC, Manassas, VA, USA) were thawed overnight in RPMI 1640 media (Thermo Fisher Scientific, Waltham, MA, USA) supplemented with 1% penicillin/streptomycin (Thermo Fisher Scientific, Waltham, MA, USA), and 10% Human Serum (Sigma, St. Louis, MO, USA). 3000 Cells (0.1×10^6/mL) were seeded in each well of 384-well plate and were treated for 24 hours in a humidified chamber with 5% CO2. Cell viability was determined by CellTiter-Glo as described by the manufacturer's instructions (Promega Corporation, Madison, WI, USA). Responses were determined as a percentage of the control treated cells and the effective concentration (EC50) to induce a 50% decrease in cell viability were determined from sigmoidal dose-response curves using Dotmatics (Dotmatics Software Company, Bishops Stortford, Hertfordshire, England).
In general terms: ATP-based viability assays read luminescence as a measure of living cells.

The test system of assay [2] is Molt-4 cells. Nature of the assay: Cell viability counter screen assay (CellTiter-Glo) in Molt-4 cells. To be noted: 24 hours, 10% Human Serum, 50% decrease in cell viability. The format is cell-based.
Excerpt: as §1, §2

A value given as a limit tells only on which side of the number the result lay.

Turning to `C[C@@H]1CO[C@@H](CNc2ccc(S(=O)(=O)NC(=O)c3ccc(N4CCN5CC6=C(c7ccc(Cl)cc7)CC(C)(C)C[C@H]6OCCCOC[C@@H]5C4)cc3N3CCCOc4nc5[nH]ccc5cc43)cc2[N+](=O)[O-])CO1` [Example 6, 4-((4aS,10aR)-14-(4-chlorophenyl)-12,12-dimethyl-1,2,4a,5,8,9,10a,11,13,15-decahydro-7H,12H-benzo[f]pyrazino[2,1-c][1,8]dioxa[4]azacycloundecin-3(4H)-yl)-2-(3,4-dihydro-2H-pyrrolo[3′,2′:5,6]pyrido[2,3-b][1,4]oxazepin-1(7H)-yl)-N-((4-((((2S,5R)-5-methyl-1,4-dioxan-2-yl)methyl)amino)-3-nitrophenyl)sulfonyl)benzamide], the values for the EC50 in assay [1] and in assay [2] were 1.55 nM and 1910 nM, respectively.
As to `CC1(C)CC(c2ccc(Cl)cc2)=C2CN3CCN(c4ccc(C(=O)NS(=O)(=O)c5cnc(OCC6(F)CCOCC6)c(Cl)c5)c(N5CCCOc6nc7[nH]ccc7cc65)c4)C[C@H]3COCCCO[C@@H]2C1` [Example 7, N-((5-chloro-6-((4-fluorotetrahydro-2H-pyran-4-yl)methoxy)pyridin-3-yl)sulfonyl)-4-((4aS,10aR)-14-(4-chlorophenyl)-12,12-dimethyl-1,2,4a,5,8,9,10a,11,13,15-decahydro-7H,12H-benzo[f]pyrazino[2,1-c][1,8]dioxa[4]azacycloundecin-3(4H)-yl)-2-(3,4-dihydro-2H-pyrrolo[3′,2′:5,6]pyrido[2,3-b][1,4]oxazepin-1(7H)-yl)benzamide], the values for the EC50 in assay [1] and in assay [2] were 5.46 nM and greater than 10000 nM, respectively.
In the case of `CC1(C)CC(c2ccc(Cl)cc2)=C2CN3CCN(c4ccc(C(=O)NS(=O)(=O)c5ccc(NC[C@H]6C[C@@](O)(CF)C6)c([N+](=O)[O-])c5)c(N5CCCOc6nc7[nH]ccc7cc65)c4)C[C@H]3COCCCO[C@@H]2C1` [Example 8, 4-((4aS,10aR)-14-(4-chlorophenyl)-12,12-dimethyl-1,2,4a,5,8,9,10a,11,13,15-decahydro-7H,12H-benzo[f]pyrazino[2,1-c][1,8]dioxa[4]azacycloundecin-3(4H)-yl)-2-(3,4-dihydro-2H-pyrrolo[3′,2′:5,6]pyrido[2,3-b][1,4]oxazepin-1(7H)-yl)-N-((4-((((1r,3r)-3-(fluoromethyl)-3-hydroxycyclobutyl)methyl)amino)-3-nitrophenyl)sulfonyl)benzamide], the concentration for a half-maximal effect (EC50) in assay [1] turned out to be 3.61 nM; in assay [2] it was 7480 nM.
On to `CC1(C)CC(c2ccc(Cl)cc2)=C2CN3CCN(c4ccc(C(=O)NS(=O)(=O)c5ccc(OCC6(F)CCN(C7COC7)CC6)c(Cl)c5)c(N5CCCOc6nc7[nH]ccc7cc65)c4)C[C@H]3COCCCO[C@@H]2C1` [Example 9, N-(3-chloro-4-{[4-fluoro-1-(oxetan-3-yl)piperidin-4-yl]methoxy}benzene-1-sulfonyl)-4-[(4aS,10aR)-14-(4-chlorophenyl)-12,12-dimethyl-1,2,4a,5,8,9,11,12,13,15-decahydro-7H,10aH-pyrazino[2,1-g][1,5,8]benzodioxazacycloundecin-3(4H)-yl]-2-(3,4-dihydro-2H-pyrrolo[3′,2′:5,6]pyrido[2,3-b][1,4]oxazepin-1(7H)-yl)benzamide], for which the EC50 in assay [1] came out at 7.96 nM; in assay [2], 5590 nM.
In the same order, the values of `CC1(C)CC(c2ccc(Cl)cc2)=C2CN3CCN(c4ccc(C(=O)NS(=O)(=O)c5cnc(OC[C@]6(F)CC[C@@H](N7CCOCC7)CC6)c(Cl)c5)c(N5CCCOc6nc7[nH]ccc7cc65)c4)C[C@H]3COCCCO[C@@H]2C1` [Example 10, N-((5-chloro-6-(((1s,4s)-1-fluoro-4-morpholinocyclohexyl)methoxy)pyridin-3-yl)sulfonyl)-4-((4aS,10aR)-14-(4-chlorophenyl)-12,12-dimethyl-1,2,4a,5,8,9,10a,11,13,15-decahydro-7H,12H-benzo[f]pyrazino[2,1-c][1,8]dioxa[4]azacycloundecin-3(4H)-yl)-2-(3,4-dihydro-2H-pyrrolo[3′,2′:5,6]pyrido[2,3-b][1,4]oxazepin-1(7H)-yl)benzamide] are 3.73 nM and 1560 nM.
On to `CC1(C)CC(c2ccc(Cl)cc2)=C2CN3CCN(c4ccc(C(=O)NS(=O)(=O)c5cnc(OC[C@]6(F)CC[C@H](N7CCOCC7)CC6)c(Cl)c5)c(N5CCCOc6nc7[nH]ccc7cc65)c4)C[C@H]3COCCCO[C@@H]2C1` [Example 11, N-((5-chloro-6-(((1r,4r)-1-fluoro-4-morpholinocyclohexyl)methoxy)pyridin-3-yl)sulfonyl)-4-((4aS,10aR)-14-(4-chlorophenyl)-12,12-dimethyl-1,2,4a,5,8,9,10a, 11,13,15-decahydro-7H,12H-benzo[f]pyrazino[2,1-c][1,8]dioxa[4]azacycloundecin-3(4H)-yl)-2-(3,4-dihydro-2H-pyrrolo[3′,2′:5,6]pyrido[2,3-b][1,4]oxazepin-1(7H)-yl)benzamide], for which the figures for the EC50 in assay [1] and in assay [2] were 19 nM and 3710 nM, respectively.
Consider `CC1(C)CC(c2ccc(Cl)cc2)=C2CN3CCN(c4ccc(C(=O)NS(=O)(=O)c5ccc(NC[C@H]6CC[C@H](O)CO6)c([N+](=O)[O-])c5)c(N5CCCOc6nc7[nH]ccc7cc65)c4)C[C@H]3COCCCO[C@@H]2C1` [Example 12, 4-((4aS,10aR)-14-(4-chlorophenyl)-12,12-dimethyl-1,2,4a,5,8,9,10a,11,13,15-decahydro-7H,12H-benzo[f]pyrazino[2,1-c][1,8]dioxa[4]azacycloundecin-3(4H)-yl)-2-(3,4-dihydro-2H-pyrrolo[3′,2′:5,6]pyrido[2,3-b][1,4]oxazepin-1(7H)-yl)-N-((4-((((2R,5S)-5-hydroxytetrahydro-2H-pyran-2-yl)methyl)amino)-3-nitrophenyl)sulfonyl)benzamide], for which the EC50 amounted to 0.966 nM in assay [1] and 823 nM in assay [2].
`CO[C@H]1CC[C@H](CNc2ccc(S(=O)(=O)NC(=O)c3ccc(N4CCN5CC6=C(c7ccc(Cl)cc7)CC(C)(C)C[C@H]6OCCCOC[C@@H]5C4)cc3N3CCCOc4nc5[nH]ccc5cc43)cc2[N+](=O)[O-])OC1` [Example 13, 4-((4aS,10aR)-14-(4-chlorophenyl)-12,12-dimethyl-1,2,4a,5,8,9,10a,11,13,15-decahydro-7H,12H-benzo[f]pyrazino[2,1-c][1,8]dioxa[4]azacycloundecin-3(4H)-yl)-2-(3,4-dihydro-2H-pyrrolo[3′,2′:5,6]pyrido[2,3-b][1,4]oxazepin-1(7H)-yl)-N-((4-((((2R,5S)-5-methoxytetrahydro-2H-pyran-2-yl)methyl)amino)-3-nitrophenyl)sulfonyl)benzamide]: the EC50 in assay [1] amounted to 2.95 nM; in assay [2], 1700 nM.
For `CC1(C)CC(c2ccc(Cl)cc2)=C2CN3CCN(c4ccc(C(=O)NS(=O)(=O)c5ccc(NC[C@H]6C[C@](O)(C7CCC7)C6)c([N+](=O)[O-])c5)c(N5CCCOc6nc7[nH]ccc7cc65)c4)C[C@H]3COCCCO[C@@H]2C1` [Example 15, 4-((4aS,10aR)-14-(4-chlorophenyl)-12,12-dimethyl-1,2,4a,5,8,9,10a,11,13,15-decahydro-7H,12H-benzo[f]pyrazino[2,1-c][1,8]dioxa[4]azacycloundecin-3(4H)-yl)-2-(3,4-dihydro-2H-pyrrolo[3′,2′:5,6]pyrido[2,3-h][1,4]oxazepin-1(7H)-yl)-N-((4-((((1s,3s)-1-hydroxy-[1,1′-bi(cyclobutan)]-3-yl)methyl)amino)-3-nitrophenyl)sulfonyl)benzamide], the concentration giving a half-maximal response (EC50) in assay [1] turned out to be 5.64 nM; in assay [2] it was 2550 nM.
As for `CC1(C)CC(c2ccc(Cl)cc2)=C2CN3CCN(c4ccc(C(=O)NS(=O)(=O)c5ccc(NC[C@H]6C[C@](O)(CF)C6)c([N+](=O)[O-])c5)c(N5CCCOc6nc7[nH]ccc7cc65)c4)C[C@H]3COCCCO[C@@H]2C1` [Example 16, 4-((4aS,10aR)-14-(4-chlorophenyl)-12,12-dimethyl-1,2,4a,5,8,9,10a,11,13,15-decahydro-7H,12H-benzo[f]pyrazino[2,1-c][1,8]dioxa[4]azacycloundecin-3(4H)-yl)-2-(3,4-dihydro-2H-pyrrolo[3′,2′:5,6]pyrido[2,3-h][1,4]oxazepin-1(7H)-yl)-N-((4-((((1s,3s)-3-(fluoromethyl)-3-hydroxycyclobutyl)methyl)amino)-3-nitrophenyl)sulfonyl)benzamide], the EC50 in assay [1] amounted to 1.51 nM; in assay [2] it was 1260 nM.
As to `CC1(C)CC(c2ccc(Cl)cc2)=C2CN3CCN(c4ccc(C(=O)NS(=O)(=O)c5ccc(NCC6(O)COC6)c([N+](=O)[O-])c5)c(N5CCCOc6nc7[nH]ccc7cc65)c4)C[C@H]3COCCCO[C@@H]2C1` [Example 17, 4-((4aS,10aR)-14-(4-chlorophenyl)-12,12-dimethyl-1,2,4a,5,8,9,10a,11,13,15-decahydro-7H,12H-benzo[f]pyrazino[2,1-c][1,8]dioxa[4]azacycloundecin-3(4H)-yl)-2-(3,4-dihydro-2H-pyrrolo[3′,2′:5,6]pyrido[2,3-b][1,4]oxazepin-1(7H)-yl)-N-((4-(((3-hydroxyoxetan-3-yl)methyl)amino)-3-nitrophenyl)sulfonyl)benzamide], the EC50 in assay [1] was found to be 2.82 nM; in assay [2], 723 nM.

One may read the EC50 as the concentration at which the effect is half-maximal.
